From patent publication US6673812B1, “Preventives/remedies for glaucoma” (Senju Pharmaceutical Co., Ltd., priority 1998, dated 2004)

Tested on: Japanese white rabbits
Assay: Effect on normal intraocular pressure of white rabbits
Format: in vivo, rabbit
Settings: 20 μl eye drop, 0.1% or 0.03%
Description: In this experiment, 0.1% eye drop and 0.03% eye drop containing Compound A (each prepared in Example 2 and Example 3), 0.03% eye drop containing Compound B (prepared in Example 4), 0.1% eye drop and 0.03% eye drop containing Compound C (each prepared in Example 5 and Example 6) and 0.03% eye drop containing Compound D (prepared in Example 7) were used.
Japanese white rabbits (body weight about 2 kg) purchased from Japan Laboratory Animals, INC. were used. These animals were bred in a breeding chamber set to temperature 23±3° C., humidity 55±10% and fed on limited amount of 100 g a day of a solid feed (Labo R Stock, Nihon-Nosan Kogyo K.K.). They were allowed free access to tap water. The rabbits were placed in a holding box for 5 hr a day for acclimation from 2 days prior to the test. […] After measurement of the initial value of the intraocular pressure, various eye drops (20 μl) were instilled into one eye, and a base, which was one of various eye drops except the test drug, was instilled into the other eye in the same manner and taken as the control eye.
The intraocular pressure was measured with time at 30, 60, 90, 120, 150 and 180 min after instillation and thereafter at one hour intervals until the intraocular pressure returned to the initial value, and the duration of the effect was examined.

C[C@@H](N)c1ccc(C(=O)Nc2ccnc3[nH]ccc23)cc1.Cl.Cl.O [Compound D, (R)-(+)-N-(1H-pyrrolo[2,3-b]pyridin-4-yl)-4-(1-aminoethyl)benzamide 2HCl 1H2O]
character (onset, duration) of intraocular pressure lowering effect: marked and long lasting intraocular pressure lowering effect
